Experimental data as given in ChEMBL document CHEMBL3132768, “Design, synthesis and biological evaluation of TAR and cTAR binders as HIV-1 nucleocapsid inhibitors” (Medchemcomm, 2013).
Calls of active or inactive are those of the source. The calls are words filed in the database; no cut-off is given here.

How the values were obtained:
[1] = system: Human immunodeficiency virus 1; experiment: Binding affinity to HIV1 cTAR DNA assessed as change in melting temperature by […]
[2] = Inhibition of NC-induced HIV1 cTAR destabilization assessed as change in melting temperature by fluorescence quenching assay; design: species or system Human immunodeficiency virus 1
[3] = Inhibition of NC-induced HIV1 TAR/cTAR annealing assessed as change in melting temperature preincubated for 15 mins before NC addition measured after 15 mins by gel electrophoresis; design: species or system Human immunodeficiency virus 1
[4] = Inhibition of NC-induced HIV1 TAR destabilization assessed as change in melting temperature by fluorescence quenching assay; design: species or system Human immunodeficiency virus 1
[5] = Octanol-water partition co-efficient, log P of the compound by shake flask method; assay type: physicochemical
Jurkat [6] = experiment: Cytotoxicity against human Jurkat cells up to 100 uM after 72 hrs by MTT assay; assay type: cell-based
Nucleic Acid [7] = experiment: Binding affinity to HIV1 TAR/cTAR RNA/DNA duplex assessed as change in melting temperature by […]; assay type: nucleic-acid assay; conditions: Human immunodeficiency virus 1
[8] = system: Human immunodeficiency virus 1; experiment: Antiviral activity against HIV1 infected in human Jurkat cells assessed as inhibition of viral replication after 3 to 4 days; assay type: functional, organism-based
Nucleic Acid [9] = experiment: Binding affinity to HIV1 TAR RNA assessed as change in melting temperature by […]; assay type: nucleic-acid assay; conditions: Human immunodeficiency virus 1
Jurkat [10] = experiment: Drug uptake in human Jurkat cells at 100 uM after 3 hrs by spectrophotometry; assay type: ADME, cell-based
[11] = system: Human immunodeficiency virus 1; experiment: Antiviral activity against HIV1 infected in human Jurkat cells assessed as inhibition of viral replication by CAT gene-based transcomplementation assay; assay type: functional, organism-based

SMILES | ΔTm [1] [°C] | IC50 [2] [µM] | IC50 [3] [µM] | IC50 [4] [µM] | logP [5] | Activity (Jurkat [6]) | ΔTm (Nucleic Acid [7]) [°C] | Activity [8] | ΔTm (Nucleic Acid [9]) [°C] | Drug uptake (Jurkat [10]) | Activity [11]
O=C(CCNC(=O)C1CCNCC1)Nc1ccc2c(c1)C(=O)c1ccc(NC(=O)CCNC(=O)C3CCNCC3)cc1C2=O.O=C(O)C(F)(F)F.O=C(O)C(F)(F)F | 1.11 | 36.3 | 95.8 | 42.9 | -2.91 | Non-toxic | 0.65 | inactive | 1.49 |  | 
NCC(N)C(=O)NCCC(=O)Nc1ccc2c(c1)C(=O)c1ccc(NC(=O)CCNC(=O)C(N)CN)cc1C2=O.O=C(O)C(F)(F)F.O=C(O)C(F)(F)F.O=C(O)C(F)(F)F.O=C(O)C(F)(F)F (stereo unspecified) | 1.92 | 22.8 |  | 21.4 | -2.56 | Non-toxic | 0.28 | inactive | 2.38 |  | 
NC1(C(=O)NCCC(=O)Nc2ccc3c(c2)C(=O)c2ccc(NC(=O)CCNC(=O)C4(N)CCNCC4)cc2C3=O)CCNCC1.O=C(O)C(F)(F)F.O=C(O)C(F)(F)F.O=C(O)C(F)(F)F.O=C(O)C(F)(F)F | 2.14 | 15.4 |  | 13.8 | -2.91 | Non-toxic | 1.12 | inactive | 2.23 |  | 
NCCCCC(N)C(=O)NCCC(=O)Nc1ccc2c(c1)C(=O)c1ccc(NC(=O)CCNC(=O)C(N)CCCCN)cc1C2=O (stereo unspecified) | 2.14 | 3.84 | 44.5 | 3.71 |  |  | 1.12 |  | 2.88 | Not Active | 
Nc1ccc(CC(N)C(=O)NCCC(=O)Nc2ccc3c(c2)C(=O)c2ccc(NC(=O)CCNC(=O)C(N)Cc4ccc(N)cc4)cc2C3=O)cc1.O=C(O)C(F)(F)F.O=C(O)C(F)(F)F.O=C(O)C(F)(F)F.O=C(O)C(F)(F)F (stereo unspecified) |  |  | 42.3 |  | -2.51 | Non-toxic |  | inactive |  |  | 
NCC1CCC(C(=O)NCCC(=O)Nc2ccc3c(c2)C(=O)c2ccc(NC(=O)CCNC(=O)C4CCC(CN)CC4)cc2C3=O)CC1.O=C(O)C(F)(F)F.O=C(O)C(F)(F)F (stereo unspecified) | 1.86 | 13.7 |  | 17.6 | -2.31 | Non-toxic | 0.84 | inactive | 0.97 |  | 
NCCCC(N)C(=O)NCCC(=O)Nc1ccc2c(c1)C(=O)c1ccc(NC(=O)CCNC(=O)C(N)CCCN)cc1C2=O.O=C(O)C(F)(F)F.O=C(O)C(F)(F)F.O=C(O)C(F)(F)F.O=C(O)C(F)(F)F (stereo unspecified) | 13.8 | 2.04 | 21.9 | 3.2 | -2.51 | Non-toxic | 3.1 |  | 16.2 |  | inactive
NCCC(=O)NCCC(=O)Nc1ccc2c(c1)C(=O)c1ccc(NC(=O)CCNC(=O)CCN)cc1C2=O.O=C(O)C(F)(F)F.O=C(O)C(F)(F)F | 2.14 | 11.8 | 76.8 | 10 | -2.98 | Non-toxic | 1.12 | inactive | 2.79 |  | 
NCCC(N)C(=O)NCCC(=O)Nc1ccc2c(c1)C(=O)c1ccc(NC(=O)CCNC(=O)C(N)CCN)cc1C2=O.O=C(O)C(F)(F)F.O=C(O)C(F)(F)F.O=C(O)C(F)(F)F.O=C(O)C(F)(F)F (stereo unspecified) | 10.5 | 7.1 | 44.1 | 6.3 | -2.55 | Non-toxic | 1.77 | inactive | 8.95 |  | 
